Measurements taken from patent publication US12145944B2, “Imidazopyrimidines as EED inhibitors and the use thereof” (THE REGENTS OF THE UNIVERSITY OF MICHIGAN, priority 2019, dated 2024).
pIC50: −log10 of the molar value.

Each molecule was assayed on KARPAS422 human B cell lymphoma cell (assay: Cell proliferation, KARPAS422, 7 day treatment (WST-8)). Settings: Homo sapiens, KARPAS-422, 168 h, anti-proliferative IC50, Karpas 422 cell line, 7 day treatment; read-out: Karpas Cell line.
Assay type: cell-based
Experimental: “N/A” stands for “not assessed”.
Analysis of Cell Proliferation:
To assess the effect of PRC2 inhibition on cell growth, cells were seeded in 96-well cell culture plates at a density of 2 000-3 000 cells/well in 200 µL of culture medium, and treated with serially diluted compounds for 7 days at 37° C. in an atmosphere of 5% CO2. Cell growth was evaluated by a […] WST-8 assay (Dojindo Molecular Technologies) using a Tecan Infinite M1000 multimode microplate reader (Tecan, Morrisville, NC). The WST-8 reagent was added to the plate, incubated for 1-4 h, and read at 450 nm. The readings were normalized to the DMSO-treated cells, and the IC50 was calculated by nonlinear regression analysis using GraphPad Prism 6 software

Row | pIC50 | Compound
1 | < 7.00 | CCOC(=O)c1ncn2c(NCc3cccc4c3OCO4)ncc(-c3ccccc3)c12 [compound 134, ethyl 5-((benzo[d][1,3]dioxol-4-ylmethyl)amino)-8-phenylimidazo[1,5-c]pyrimidine-1-carboxylate]
2 | < 7.00 | c1ccc(-c2cnc(NCc3ccco3)n3cncc23)cc1 [Cpd. No. 126, N-(furan-2-ylmethyl)-8-phenylimidazo[1,5-c]pyrimidin-5-amine]
3 | 8.41 | O=C1c2ncn3c(NCc4c(F)ccc5c4CCO5)ncc(c23)-c2cnc(C(F)(F)F)cc2CN1CCF [compound 72, 12-(((5-fluoro-2,3-dihydrobenzofuran-4-yl)methyl)amino)-4-(2-fluoroethyl)-7-(trifluoromethyl)-4,5-dihydro-3H-2,4,8,11,12a-pentaazabenzo[4,5]cycloocta[1,2,3-cd]inden-3-one]
4 | < 7.00 | COc1cccc(F)c1CNc1ncc2c3c(ncn13)C(=O)N(C1CC1)Cc1cc(C(F)(F)F)ncc1-2 [compound 70, 4-cyclopropyl-12-((2-fluoro-6-methoxybenzyl)amino)-7-(trifluoromethyl)-4,5-dihydro-3H-2,4,8,11,12a-pentaazabenzo[4,5]cycloocta[1,2,3-cd]inden-3-one]
5 | < 7.00 | Cn1cc2c(n1)COC(=O)c1ncn3c(NCc4c(F)ccc5c4CCO5)ncc-2c13 [compound 54, 11-(((5-fluoro-2,3-dihydrobenzofuran-4-yl)methyl)amino)-7-methyl-5,7-dihydro-3H-4-oxa-2,6,7,10,11a-pentaazacyclopenta[4,5]cycloocta[1,2,3-cd]inden-3-one]
6 | 8.87 | O=C1c2ncn3c(NCc4c(F)ccc5c4CCO5)ncc(c23)-c2ccc(C(F)(F)F)cc2CN1CC1COCCO1 (stereo not shown) [compound 68, 4-((1,4-dioxan-2-yl)methyl)-12-(((5-fluoro-2,3-dihydrobenzofuran-4-yl)methyl)amino)-7-(trifluoromethyl)-4,5-dihydro-3H-2,4,11,12a-tetraazabenzo[4,5]cycloocta[1,2,3-cd]inden-3-one]
7 | 8.43 | CC(F)(F)CN1Cc2cc(C(F)(F)F)ccc2-c2cnc(NCc3c(F)ccc4c3CCO4)n3cnc(c23)C1=O [compound 63, 4-(2,2-difluoropropyl)-12-(((5-fluoro-2,3-dihydrobenzofuran-4-yl)methyl)amino)-7-(trifluoromethyl)-4,5-dihydro-3H-2,4,11,12a-tetraazabenzo[4,5]cycloocta[1,2,3-cd]inden-3-one]
8 | < 7.00 | CNC(=O)c1ncn2c(NCc3cccc4c3OCO4)ncc(-c3ccccc3)c12 [compound 141, 5-((benzo[d][1,3]dioxol-4-ylmethyl)amino)-N-methyl-8-phenylimidazo[1,5-c]pyrimidine-1-carboxamide]
9 | < 7.00 | CCOC(=O)c1ncn2c(NCc3c(F)cccc3OC)ncc(-c3ccccc3)c12 [compound 130, ethyl 5-((2-fluoro-6-methoxybenzyl)amino)-8-phenylimidazo[1,5-c]pyrimidine-1-carboxylate]
10 | 8.11 | O=C1c2ncn3c(NCc4c(F)ccc5c4CCO5)ncc(c23)-c2ccc(C(F)(F)F)cc2CN1C1CC1 [compound 67, 4-cyclopropyl-12-(((5-fluoro-2,3-dihydrobenzofuran-4-yl)methyl)amino)-7-(trifluoromethyl)-4,5-dihydro-3H-2,4,11,12a-tetraazabenzo[4,5]cycloocta[1,2,3-cd]inden-3-one]
11 | < 7.00 | Cn1ncc2c1CNC(=O)c1ncn3c(NCc4c(F)ccc5c4CCO5)ncc-2c13 [compound 53, 11-(((5-fluoro-2,3-dihydrobenzofuran-4-yl)methyl)amino)-6-methyl-5,6-dihydro-2,4,6,7,10,11a-hexaazacyclopenta[4,5]cycloocta[1,2,3-cd]inden-3(4H)-one]
12 | 8.09 | O=C1c2ncn3c(NCc4c(F)ccc5c4CCO5)ncc(c23)-c2ccc(C(F)(F)F)nc2CN1CC1CC1 [compound 55, 4-(cyclopropylmethyl)-12-(((5-fluoro-2,3-dihydrobenzofuran-4-yl)methyl)amino)-7-(trifluoromethyl)-4,5-dihydro-3H-2,4,6,11,12a-pentaazabenzo[4,5]cycloocta[1,2,3-cd]inden-3-one]
13 | 8.31 | CC(C)(F)CN1Cc2cc(C(F)(F)F)ccc2-c2cnc(NCc3c(F)ccc4c3CCO4)n3cnc(c23)C1=O [compound 62, 12-(((5-fluoro-2,3-dihydrobenzofuran-4-yl)methyl)amino)-4-(2-fluoro-2-methylpropyl)-7-(trifluoromethyl)-4,5-dihydro-3H-2,4,11,12a-tetraazabenzo[4,5]cycloocta[1,2,3-cd]inden-3-one]
14 | 9.19 | CC1(O)CC(CN2Cc3nc(C(F)(F)F)ccc3-c3cnc(NCc4c(F)ccc5c4CCO5)n4cnc(c34)C2=O)C1 (stereo not shown) [compound 47, 12-(((5-fluoro-2,3-dihydrobenzofuran-4-yl)methyl)amino)-4-((3-hydroxy-3-methylcyclobutyl)methyl)-7-(trifluoromethyl)-4,5-dihydro-3H-2,4,6,11,12a-pentaazabenzo[4,5]cycloocta[1,2,3-cd]inden-3-one]

The remaining lines, values behind:

Row | Compound | pIC50
15 | O=C1c2ncn3c(NCc4c(F)ccc5c4CCO5)ncc(c23)-c2ccc(C(F)(F)F)cc2CN1CCF [compound 61, 12-(((5-fluoro-2,3-dihydrobenzofuran-4-yl)methyl)amino)-4-(2-fluoroethyl)-7-(trifluoromethyl)-4,5-dihydro-3H-2,4,11,12a-tetraazabenzo[4,5]cycloocta[1,2,3-cd]inden-3-one] | 8.79
16 | O=C1c2ncn3c(NCc4c(F)ccc5c4CCO5)ncc(c23)-c2ccc(C(F)(F)F)nc2CN1CC1CCOC1 (stereo not shown) [compound 52, 12-(((5-fluoro-2,3-dihydrobenzofuran-4-yl)methyl)amino)-4-((tetrahydrofuran-3-yl)methyl)-7-(trifluoromethyl)-4,5-dihydro-3H-2,4,6,11,12a-pentaazabenzo[4,5]cycloocta[1,2,3-cd]inden-3-one] | 9.27
17 | COc1cccc(F)c1CNc1ncc2c3c(ncn13)C(=O)N(C(C)C)Cc1nc(C(F)(F)F)ccc1-2 [compound 71, 12-((2-fluoro-6-methoxybenzyl)amino)-4-isopropyl-7-(trifluoromethyl)-4,5-dihydro-3H-2,4,6,11,12a-pentaazabenzo[4,5]cycloocta[1,2,3-cd]inden-3-one] | < 7.00
18 | CCOC(=O)c1ncn2c(NCc3c(F)ccc(OC)c3Cl)ncc(-c3ccccc3)c12 [compound 133, ethyl 5-((2-chloro-6-fluoro-3-methoxybenzyl)amino)-8-phenylimidazo[1,5-c]pyrimidine-1-carboxylate] | < 7.00
19 | CC1(O)CC(CN2Cc3cc(C(F)(F)F)ncc3-c3cnc(NCc4c(F)ccc5c4CCO5)n4cnc(c34)C2=O)C1 (stereo not shown) [compound 49, 12-(((5-fluoro-2,3-dihydrobenzofuran-4-yl)methyl)amino)-4-((3-hydroxy-3-methylcyclobutyl)methyl)-7-(trifluoromethyl)-4,5-dihydro-3H-2,4,8,11,12a-pentaazabenzo[4,5]cycloocta[1,2,3-cd]inden-3-one] | 8.56
20 | CNC(=O)c1ncn2c(NCc3cc(OC)ccc3F)ncc(-c3ccccc3)c12 [compound 139, 5-((2-fluoro-5-methoxybenzyl)amino)-N-methyl-8-phenylimidazo[1,5-c]pyrimidine-1-carboxamide] | < 7.00
21 | CC(C)N1Cc2cc(C(F)(F)F)ncc2-c2cnc(NCc3c(F)ccc4c3CCO4)n3cnc(c23)C1=O [compound 73, 12-(((5-fluoro-2,3-dihydrobenzofuran-4-yl)methyl)amino)-4-isopropyl-7-(trifluoromethyl)-4,5-dihydro-3H-2,4,8,11,12a-pentaazabenzo[4,5]cycloocta[1,2,3-cd]inden-3-one] | 7.95
22 | CCOC(=O)c1ncn2c(NCc3ccccc3OC)ncc(-c3ccccc3)c12 [compound 129, ethyl 5-((2-methoxybenzyl)amino)-8-phenylimidazo[1,5-c]pyrimidine-1-carboxylate] | < 7.00
23 | CP(C)(=O)c1ncn2c(NCc3c(F)ccc4c3CCO4)ncc(-c3ccccc3)c12 [Cpd. No. 144, (5-(((5-fluoro-2,3-dihydrobenzofuran-4-yl)methyl)amino)-8-phenylimidazo[1,5-c]pyrimidin-1-yl)dimethylphosphine oxide] | < 8.00
24 | CNC(=O)c1ncn2c(NCc3ccco3)ncc(-c3ccccc3)c12 [Cpd. No. 128, 5-((furan-2-ylmethyl)amino)-N-methyl-8-phenylimidazo[1,5-c]pyrimidine-1-carboxamide] | < 7.00
25 | CNC(=O)c1ncn2c(NCc3ccccc3OC)ncc(-c3ccccc3)c12 [compound 136, 5-((2-methoxybenzyl)amino)-N-methyl-8-phenylimidazo[1,5-c]pyrimidine-1-carboxamide] | < 7.00
26 | CN1CCC(N2Cc3cc(C(F)(F)F)ccc3-c3cnc(NCc4c(F)ccc5c4CCO5)n4cnc(c34)C2=O)CC1 [compound 74, 12-(((5-fluoro-2,3-dihydrobenzofuran-4-yl)methyl)amino)-4-(1-methylpiperidin-4-yl)-7-(trifluoromethyl)-4,5-dihydro-3H-2,4,11,12a-tetraazabenzo[4,5]cycloocta[1,2,3-cd]inden-3-one] | 7.33

Same assay, conditions: Homo sapiens, KARPAS-422, 168 h, read-out: Karpas Cell line (nM)

Row | Compound | IC50
27 | CS(=O)(=O)c1ccc(-c2cnc(NCc3c(F)ccc4c3CCO4)n3cnc(S(C)(=O)=O)c23)cn1 [compound 105, N-((5-fluoro-2,3-dihydrobenzofuran-4-yl)methyl)-1-(methylsulfonyl)-8-(6-(methylsulfonyl)pyridin-3-yl)imidazo[1,5-c]pyrimidin-5-amine] | 10.8 nM
28 | Cc1ccc(-c2cnc(NCc3c(F)ccc4c3CCO4)n3cnc(S(C)(=O)=O)c23)cn1 [compound 103, N-((5-fluoro-2,3-dihydrobenzofuran-4-yl)methyl)-8-(6-methylpyridin-3-yl)-1-(methylsulfonyl)imidazo[1,5-c]pyrimidin-5-amine] | 1.88 nM
